Measurements as given in patent US9115127B2 (AMGEN INC., priority 2010, dated 2015).
Counter-ions that a name gives are not always drawn.

Target: T1, wild-type human ALK (cytoplasmic domain, amino acids 1058-1620, N-terminal GST fusion) (Homo sapiens, UniProt Q9UM73)
T1 construct: The cytoplasmic domain (amino acids 1058-1620) of wild-type human ALK; GST (N); made in house; host or cells: SF9 insect cells
Experiment: ALK Inhibition in Enzyme Assay (Lance TR-FRET kinase assay)
Format: biochemical
Procedure, shortened: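 TR-FRET read-out (Eu-W1024 PT66 anti-phosphotyrosine plus streptavidin-allophycocyanin, 320 nm excitation) quantified biotinylated peptide phosphorylation by the purified kinase. Reaction ran 90 minutes at room temperature before quenching with 20 mM EDTA in Tris pH 7.5 buffer with NaCl, BSA and Tween-20.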

T1 sequence (Q9UM73 1058-1620): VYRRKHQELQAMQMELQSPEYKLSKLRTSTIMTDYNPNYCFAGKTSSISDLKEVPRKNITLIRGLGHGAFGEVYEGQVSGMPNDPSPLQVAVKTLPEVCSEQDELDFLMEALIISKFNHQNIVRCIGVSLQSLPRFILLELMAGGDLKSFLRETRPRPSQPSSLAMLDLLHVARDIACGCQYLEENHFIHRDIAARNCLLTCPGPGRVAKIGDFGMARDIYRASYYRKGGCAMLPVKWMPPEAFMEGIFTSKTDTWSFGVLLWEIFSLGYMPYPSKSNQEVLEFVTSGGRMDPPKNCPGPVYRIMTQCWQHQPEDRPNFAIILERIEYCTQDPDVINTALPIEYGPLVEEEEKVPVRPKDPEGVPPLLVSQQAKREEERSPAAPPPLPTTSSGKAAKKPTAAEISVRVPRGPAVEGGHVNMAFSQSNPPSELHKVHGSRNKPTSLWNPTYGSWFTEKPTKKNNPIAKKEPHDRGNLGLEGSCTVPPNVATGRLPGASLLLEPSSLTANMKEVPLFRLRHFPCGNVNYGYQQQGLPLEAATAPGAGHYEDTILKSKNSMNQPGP

IC50	SMILES
< 50 nM	CC(C)(CO)NC(=O)[C@H]1CC[C@@H](n2/c(=N/C(=O)c3ccc(F)cc3)[nH]c3ccc(CN4CCOCC4)cc32)CC1 [Example 199, (E)-4-Fluoro-N-(1-(cis-4-(1-hydroxy-2-methylpropan-2-ylcarbamoyl)cyclohexyl)-6-(morpholinomethyl)-1H-benzo[d]imidazol-2(3H)-ylidene)benzamide]
50 to 100 nM	CC(C)(O)CNC(=O)[C@H]1CC[C@@H](n2/c(=N/C(=O)c3ccc(F)cc3)[nH]c3ccc(CN4CCOCC4)cc32)CC1 [Example 206, (E)-4-Fluoro-N-(1-(cis-4-(2-hydroxy-2-methylpropylcarbamoyl)-cyclohexyl)-6-(morpholinomethyl)-1H-benzo[d]imidazol-2(3H)-ylidene)benzamide]
< 50 nM	COC(=O)[C@H]1CC[C@@H](n2/c(=N/C(=O)c3ccc(F)cc3)[nH]c3ccc(CN4CCC(C(C)(C)O)CC4)cc32)CC1 [Example 209, cis-Methyl 4-((E)-2-(4-fluorobenzoylimino)-6-((4-(2-hydroxypropan-2-yl)piperidin-1-yl)methyl)-2,3-dihydro-1H-benzo[d]imidazol-1-yl)cyclohexanecarboxylate]
100 to 1000 nM	CC(C)(O)C1CCN(Cc2ccc3[nH]/c(=N\C(=O)c4ccc(F)cc4)n([C@H]4CC[C@@H](C(=O)O)CC4)c3c2)CC1 [Example 210, cis-4-((E)-2-(4-Fluorobenzoylimino)-6-((4-(2-hydroxypropan-2-yl)piperidin-1-yl)methyl)-2,3-dihydro-1H-benzo[d]imidazol-1-yl)cyclohexanecarboxylic acid]
< 50 nM	CC(C)(O)C1CCN(Cc2ccc3[nH]/c(=N\C(=O)c4ccc(F)cc4)n([C@H]4CC[C@@H](C(=O)N5CCNCC5)CC4)c3c2)CC1 [Example 211, (E)-4-Fluoro-N-(6-((4-(2-hydroxypropan-2-yl)piperidin-1-yl)methyl)-1-(cis-4-(piperazine-1-carbonyl)cyclohexyl)-1H-benzo[d]imidazol-2(3H)-ylidene)benzamide]
< 50 nM	CC(C)(O)C1CCN(Cc2ccc3[nH]/c(=N\C(=O)c4ccc(F)cc4)n([C@H]4CC[C@@H](C(N)=O)CC4)c3c2)CC1 [Example 212, (E)-N-(1-(cis-4-Carbamoylcyclohexyl)-6-((4-(2-hydroxypropan-2-yl)piperidin-1-yl)methyl)-1H-benzo[d]imidazol-2(3H)-ylidene)-4-fluorobenzamide]
< 50 nM	CONC(=O)[C@H]1CC[C@@H](n2/c(=N/C(=O)c3ccc(F)cc3)[nH]c3ccc(CN4CCC(C(C)(C)O)CC4)cc32)CC1 [Example 213, (E)-4-Fluoro-N-(6-((4-(2-hydroxypropan-2-yl)piperidin-1-yl)methyl)-1-(cis-4-(methoxycarbamoyl)cyclohexyl)-1H-benzo[d]imidazol-2(3H)-ylidene)benzamide]
< 50 nM	CC(C)(CO)NC(=O)[C@H]1CC[C@@H](n2/c(=N/C(=O)c3ccc(F)cc3)[nH]c3ccc(CN4CCC(C(C)(C)O)CC4)cc32)CC1 [Example 214, (E)-4-Fluoro-N-(1-(cis-4-(1-hydroxy-2-methylpropan-2-ylcarbamoyl)cyclohexyl)-6-((4-(2-hydroxypropan-2-yl)piperidin-1-yl)methyl)-1H-benzo[d]imidazol-2(3H)-ylidene)benzamide]
< 50 nM	CC(C)(C)NC(=O)[C@H]1CC[C@@H](n2/c(=N/C(=O)c3ccc(F)cc3)[nH]c3ccc(CN4CCC(C(C)(C)O)CC4)cc32)CC1 [Example 215, (E)-N-(1-(cis-4-(tert-Butylcarbamoyl)cyclohexyl)-6-((4-(2-hydroxypropan-2-yl)piperidin-1-yl)methyl)-1H-benzo[d]imidazol-2(3H)-ylidene)-4-fluorobenzamide]
< 50 nM	CC(C)(O)C1CCN(Cc2ccc3[nH]/c(=N\C(=O)c4ccc(F)cc4)n([C@H]4CC[C@@H](C(=O)N5CCCCC5)CC4)c3c2)CC1 [Example 216, (E)-4-Fluoro-N-(6-((4-(2-hydroxypropan-2-yl)piperidin-1-yl)methyl)-1-(cis-4-(piperidine-1-carbonyl)cyclohexyl)-1H-benzo[d]imidazol-2(3H)-ylidene)benzamide]

More lines, now with the values behind:

SMILES	IC50
C[C@H](CO)NC(=O)[C@H]1CC[C@@H](n2/c(=N/C(=O)c3ccc(F)cc3)[nH]c3ccc(CN4CCOCC4)cc32)CC1 [Example 200, (E)-4-Fluoro-N-(1-(cis-4-((R)-1-hydroxypropan-2-ylcarbamoyl)cyclohexyl)-6-(morpholinomethyl)-1H-benzo[d]imidazol-2(3H)-ylidene)benzamide]	< 50 nM
O=C(/N=c1\[nH]c2ccc(CN3CCOCC3)cc2n1[C@H]1CC[C@@H](C(=O)NCCO)CC1)c1ccc(F)cc1 [Example 201, (E)-4-Fluoro-N-(1-(cis-4-(2-hydroxyethylcarbamoyl)cyclohexyl)-6-(morpholinomethyl)-1H-benzo[d]imidazol-2(3H)-ylidene)benzamide]	< 50 nM
O=C(/N=c1\[nH]c2ccc(CN3CCOCC3)cc2n1[C@H]1CC[C@@H](C(=O)N2CCOCC2)CC1)c1ccc(F)cc1 [Example 202, (E)-4-Fluoro-N-(1-(cis-4-(morpholine-4-carbonyl)cyclohexyl)-6-(morpholinomethyl)-1H-benzo[d]imidazol-2(3H)-ylidene)benzamide]	100 to 1000 nM
CN1CCN(C(=O)[C@H]2CC[C@@H](n3/c(=N/C(=O)c4ccc(F)cc4)[nH]c4ccc(CN5CCOCC5)cc43)CC2)CC1 [Example 203, (E)-4-Fluoro-N-(1-(cis-4-(4-methylpiperazine-1-carbonyl)cyclohexyl)-6-(morpholinomethyl)-1H-benzo[d]imidazol-2(3H)-ylidene)benzamide]	100 to 1000 nM
O=C(/N=c1\[nH]c2ccc(CN3CCOCC3)cc2n1[C@H]1CC[C@@H](C(=O)N2CCNCC2)CC1)c1ccc(F)cc1 [Example 204, (E)-4-Fluoro-N-(6-(morpholinomethyl)-1-(cis-4-(piperazine-1-carbonyl)cyclohexyl)-1H-benzo[d]imidazol-2(3H)-ylidene)benzamide]	< 50 nM
NC(=O)[C@H]1CC[C@@H](n2/c(=N/C(=O)c3ccc(F)cc3)[nH]c3ccc(CN4CCOCC4)cc32)CC1 [Example 205, (E)-N-(1-(cis-4-Carbamoylcyclohexyl)-6-(morpholinomethyl)-1H-benzo[d]imidazol-2(3H)-ylidene)-4-fluorobenzamide]	< 50 nM
O=C(/N=c1\[nH]c2ccc(CN3CCOCC3)cc2n1[C@H]1CC[C@@H](C(=O)NO)CC1)c1ccc(F)cc1 [Example 207, (E)-4-Fluoro-N-(1-(cis-4-(hydroxycarbamoyl)cyclohexyl)-6-(morpholinomethyl)-1H-benzo[d]imidazol-2(3H)-ylidene)benzamide]	50 to 100 nM
CONC(=O)[C@H]1CC[C@@H](n2/c(=N/C(=O)c3ccc(F)cc3)[nH]c3ccc(CN4CCOCC4)cc32)CC1 [Example 208, (E)-4-Fluoro-N-(1-(cis-4-(methoxycarbamoyl)cyclohexyl)-6-(morpholinomethyl)-1H-benzo[d]imidazol-2(3H)-ylidene)benzamide]	< 50 nM
CC(C)(O)C1CCN(Cc2ccc3[nH]/c(=N\C(=O)c4ccc(F)cc4)n([C@H]4CC[C@@H](C(=O)N5[C@@H]6CC[C@H]5CNC6)CC4)c3c2)CC1 [Example 217, (E)-N-(1-(cis-4-(3,8-Fiazabicyclo[3.2.1]octane-8-carbonyl)cyclohexyl)-6-((4-(2-hydroxypropan-2-yl)piperidin-1-yl)methyl)-1H-benzo[d]imidazol-2(3H)-ylidene)-4-fluorobenzamide dihydrochloride]	< 50 nM
CC(C)NC(=O)[C@H]1CC[C@@H](n2/c(=N/C(=O)c3ccc(F)cc3)[nH]c3ccc(N4CCOCC4)cc32)CC1 [Example 218, (E)-4-Fluoro-N-(1-(cis-4-(isopropylcarbamoyl)cyclohexyl)-6-morpholino-1H-benzo[d]imidazol-2(3H)-ylidene)benzamide]	< 50 nM
CC(C)NC(=O)[C@H]1CC[C@@H](n2/c(=N/C(=O)c3ccc(F)cc3)[nH]c3ccc(Cl)cc32)CC1 [Example 219, (E)-N-(6-Chloro-1-(cis-4-(isopropylcarbamoyl)cyclohexyl)-1H-benzo[d]imidazol-2(3H)-ylidene)-4-fluorobenzamide]	< 50 nM
CC(C)NC(=O)[C@H]1CC[C@@H](n2/c(=N/C(=O)c3ccc(F)cc3)[nH]c3ccc(F)cc32)CC1 [Example 220, (E)-4-Fluoro-N-(6-fluoro-1-(cis-4-(isopropylcarbamoyl)cyclohexyl)-1H-benzo[d]imidazol-2(3H)-ylidene)benzamide]	< 50 nM
CC(C)NC(=O)[C@H]1CC[C@@H](n2/c(=N/C(=O)c3ccc(F)cc3)[nH]c3ccc(-n4cncn4)cc32)CC1 [Example 221, (E)-4-Fluoro-N-(1-(cis-4-(isopropylcarbamoyl)cyclohexyl)-6-(1H-1,2,4-triazol-1-yl)-1H-benzo[d]imidazol-2(3H)-ylidene)benzamide]	< 50 nM
CC(C)NC(=O)[C@H]1CC[C@@H](n2/c(=N/C(=O)c3ccc(F)cc3)[nH]c3cnc(N4CCOCC4)cc32)CC1 [Example 222, (E)-4-Fluoro-N-(1-(cis-4-(isopropylcarbamoyl)cyclohexyl)-6-morpholino-1H-imidazo[4,5-c]pyridin-2(3H)-ylidene)benzamide]	< 50 nM
CC(C)NC(=O)[C@H]1CC[C@@H](n2/c(=N/C(=O)c3ccc(F)cc3)[nH]c3cnc(N4CCS(=O)(=O)CC4)cc32)CC1 [Example 223, N-((2E)-6-(1,1-Dioxido-4-thiomorpholinyl)-1-(cis-4-((1-methylethyl)carbamoyl)cyclohexyl)-1,3-dihydro-2H-imidazo[4,5-c]pyridin-2-ylidene)-4-fluorobenzamide]	< 50 nM
CC(C)NC(=O)[C@H]1CC[C@@H](n2/c(=N/C(=O)c3ccc(F)cc3)[nH]c3cnc(N4CCN(S(C)(=O)=O)CC4)cc32)CC1 [Example 224, (E)-4-Fluoro-N-(1-(cis-4-(isopropylcarbamoyl)cyclohexyl)-6-(4-(methylsulfonyl)-piperazin-1-yl)-1H-imidazo[4,5-c]pyridin-2(3H)-ylidene)benzamide]	< 50 nM
